Experimental data taken from patent publication US5672585A, “Method and composition for treating thrombosis” (priority 1995, dated 1997).

Experiments:
platelets [1] = test: Ex vivo platelet aggregation in the canine coronary thrombosis study; conditions: dog
Method: For all ex vivo studies (see FIGS. 3A, 3B1, 3B2, 3B3, 3C1 and 3C2), control aggregation values were standardized to the percentages of light transmission observed in PRP and PPP samples (0% and 100%, respectively).
(§1) Animals were randomly assigned to two treatment groups: vehicle control (i.e., normal saline) or RGD peptides at various concentrations. Peptides were administered intra-atrially in both bolus and continuous injections. Each bolus injection consisted of 0.5 to 10 mg/kg and was administered 15 minutes before application of the current. A continuous infusion of the same peptide was then started immediately after completion of this initial injection. Animals received a 25 μg/kg/min to 200 μg/kg/min infusion. The anti-thrombotic effects of the peptides were monitored until 30 minutes after the occurrence of a persistent, occlusive thrombus or five hours after the initiation of electrical stimulation (whichever resulted first). If an occlusive thrombus had not developed within four hours after the initiation of current, the peptide infusion was stopped.
Platelet counts and ex vivo aggregation studies were performed one hour before and 1, 3, and 5 hours after application of anodal direct current.
Platelet aggregation was also determined ex vivo at one, three, and five hours after current application. For these studies, arachidonic acid, or collagen was again used to stimulate the platelets.

[2] = Peripheral blood flow (PBF), laser dopler flow probe, rabbit ear; assay type: in vivo; conditions: time 10 min, bolus dose as listed per peptide
Method: Unanesthetized male New Zealand White rabbits (2.5-3.5 kg) were placed in a standard rabbit restrainer. Ears were shaved and a 20G teflon catheter with flowswitch (Viggo) was placed in the medial artery, flushed with saline and locked with 1 ml of heparinized saline ([…]). A 22G catheter (Abbott) fitted with an injection cap (Medex) was placed in the marginal vein of the same ear. Saline or a GP IIb IIIa receptor antagonist, at a concentration of 1 to 3 mg/ml, was infused via the venous catheter. At time 0, 41% of the dose was given as a bolus over 2 minutes. The remainder was continuously infused over the following 60 minutes. Blood samples (3.2 ml) were collected into syringes without needles via the arterial catheter at -10, -5, 10, 45 and 60 minutes. […] The sample was divided into 1.5 ml aliquots and centrifuged at room temperature for 5 seconds at 12,000 G. The resulting platelet rich plasma (PRP) is used to measure ex-vivo platelet aggregation (XPA). […]
In an alternative series of experiments, (Table 2) PBF was measured quantitatively with a laser dopler flow probe (Perimed). The probe was positioned securely over the vascular bed of one ear and flow monitored continuously. Each inhibitor was infused and CBT measured in the opposing ear. No arterial catheter was placed for blood sampling, consequently XPA […] in these animals. […]

platelets [3] = test: ADP-stimulated platelet aggregation in platelet-rich plasma (Table I); conditions: read-out: ADP-Stimulated Aggregation; ADP 10 μm, citrated platelet-rich plasma, 37° C.; * concentrations unconfirmed by amino acid composition analysis
Method: (§2) Briefly, the change in light transmission was measured through a stirred suspension of platelets in an aggregometer (Model 400 VS, Chrono-Log, Hayertown, Pa., USA). […] In studies using thrombin, the PRP was gel-filtered on Sepharose 2B in divalent ion-free Tyrode's solution containing 2% BSA. For all studies, the reference standard was platelet-poor plasma, which was obtained by centrifuging PRP at 1000×g for 5 min.
(§3) All aggregation studies were performed at 37° C. with a constantly stirred suspension of 3×10^8 platelets/ml. (Platelet count was determined with the aid of a hemacytometer.) Peptides and stimulants were added to these suspensions in 1% dilutions. The PRP and gel-filtered platelets were used within three hours from the time of blood collection.
(§4) Peptide anti-aggregation potencies were determined from dose-responsive curves for the inhibition of the maximum aggregation responses stimulated by physiologic doses of ADP (10 μm) and thrombin (2 U/ml).

platelets [4] = test: Thrombin-stimulated platelet aggregation (Table I); conditions: read-out: Thrombin Stimulated Aggregation; thrombin 2 U/ml, gel-filtered platelets, 37° C.
Method: as §2, §3, §4

canine platelets = test: Canine platelet aggregation in vitro (ADP, arachidonic acid, collagen); assay type: cell-based, dog; conditions: stimulated by 10 μm ADP, […] arachidonic acid or 9.6 micrograms/ml collagen; read-out: IC50 against canine platelet aggregation
coronary thrombosis = test: Electrically induced canine coronary thrombosis, time to full occlusion; assay type: in vivo; conditions: dog
Method: Male mongrel dogs weighing 14 to 20 kg were selected based on proper aggregation of their platelets in response to arachidonic acid, collagen, and adenosine disphosphate (ADP) and based on similar weights and hemodynamic properties.
Before surgery, the animals were anesthetized with sodium pentobarbital (30 mg/kg, i.v.) and then intubated and ventilated on room air with positive pressure using a respirator (Harvard Apparatus, S. Natick, Mass.) at a volume of 30 ml/kg and a frequency of 12 breaths/min. Surgery, performed under aseptic conditions, was begun with the placement of cannulae into the left carotid artery and jugular vein for monitoring arterial blood pressure (Statham P23 pressure transducer, Gould, Inc., Cardiovascular Products, Oxnard, CA) and administering intravenous fluids.
The heart was exposed via a left thoracotomy through the 5th intercostal space. A 2-cm segment of the left circumflex coronary artery (LCCA) was isolated from surrounding tissue by blunt dissection. […] The intra-coronary electrode was constructed by attaching a 25-gauge hypodermic needle tip to a 30-gauge Teflon-insulated silver-coated copper wire. The mechanical occluder was constructed of stainless steel in a C shape with a Teflon screw (2 mm diameter) on top. It was adjusted to control vessel circumference and decrease the reactive hyperemic flow due to a 10-sec (full) occlusion by 50-70% without affecting basal coronary blood flow (FIG. 1C). A monopolar epicardial electrode was sutured to the surface of the ventricle in the region of LCCA distribution to monitor ischemic changes in the electrocardiogram (ECG). The left atrium was cannulated with polythylene tubing for administration of the peptide. Continuous recordings of blood pressure, limb lead II ECG, epicardial electrogram, and mean and phasic LCCA blood flow were obtained on a Model 7 polygraph (Grass Instrument Co., Quincy, Mass.).
One hour after the completion of surgery, a 100 micro-amp continuous anodal direct current delivered from a 9 volt nickel-cadmium battery was applied to the intimal surface of the LCCA. The anode of the battery was in series with a 250,000 ohm potentiometer and the intraluminal coronary artery electrode. The electric circuit was completed by placing the cathode in a subcutaneous site. Electrical stimulation was applied for three hours. At the conclusion of each experiment, the heart was fibrillated electrically and quickly removed, and the LCCA was dissected free as far as possible to verify the position of the implanted anodal electrode.
as §1
Coronary thrombosis was quantified as the time to full occlusion. The effects of the various peptide treatments on coronary thrombosis is illustrated in FIG. 4.

human platelets = test: Human platelet aggregation, modified assay (Table II); assay type: cell-based; conditions: human PRP, citrate; aggregating agent collagen, U46619 or ADP
Method: In an independent study, a slightly modified aggregation assay was used. Platelet aggregation assays were performed in human platelet rich plasma (PRP). […] The blood was centrifuged at 160×g for 10 minutes at 22° C. and allowed to stand for 5 minutes after which the PRP was decanted. Platelet poor plasma (PPP) was isolated from the remaining blood after centrifugation at 2000×g for 25 minutes. The platelet count of the PRP was diluted to about 300,000 platelets per microliter with PPP.
A 225 μl aliquot of PRP plus 25 μl of either a dilution of the test inhibitor sample or a control (PBS) was incubated for 5 minutes in a Chrono-log Whole Blood Aggregometer at 37° C. An aggregating agent (collagen, 1 μg/ml; U46619, 100 ng/ml; or ADP, 17μM) was added and the transmission was recorded.

GP IIb/IIIa = GP IIb/IIIa (Homo sapiens, UniProt P05106+P08514); test: Inhibition of ligand binding to GP IIb/IIIa; conditions: fibrinogen versus fibronectin and vitronectin
Sequence of GP IIb/IIIa (P08514 32-887 limits assumed): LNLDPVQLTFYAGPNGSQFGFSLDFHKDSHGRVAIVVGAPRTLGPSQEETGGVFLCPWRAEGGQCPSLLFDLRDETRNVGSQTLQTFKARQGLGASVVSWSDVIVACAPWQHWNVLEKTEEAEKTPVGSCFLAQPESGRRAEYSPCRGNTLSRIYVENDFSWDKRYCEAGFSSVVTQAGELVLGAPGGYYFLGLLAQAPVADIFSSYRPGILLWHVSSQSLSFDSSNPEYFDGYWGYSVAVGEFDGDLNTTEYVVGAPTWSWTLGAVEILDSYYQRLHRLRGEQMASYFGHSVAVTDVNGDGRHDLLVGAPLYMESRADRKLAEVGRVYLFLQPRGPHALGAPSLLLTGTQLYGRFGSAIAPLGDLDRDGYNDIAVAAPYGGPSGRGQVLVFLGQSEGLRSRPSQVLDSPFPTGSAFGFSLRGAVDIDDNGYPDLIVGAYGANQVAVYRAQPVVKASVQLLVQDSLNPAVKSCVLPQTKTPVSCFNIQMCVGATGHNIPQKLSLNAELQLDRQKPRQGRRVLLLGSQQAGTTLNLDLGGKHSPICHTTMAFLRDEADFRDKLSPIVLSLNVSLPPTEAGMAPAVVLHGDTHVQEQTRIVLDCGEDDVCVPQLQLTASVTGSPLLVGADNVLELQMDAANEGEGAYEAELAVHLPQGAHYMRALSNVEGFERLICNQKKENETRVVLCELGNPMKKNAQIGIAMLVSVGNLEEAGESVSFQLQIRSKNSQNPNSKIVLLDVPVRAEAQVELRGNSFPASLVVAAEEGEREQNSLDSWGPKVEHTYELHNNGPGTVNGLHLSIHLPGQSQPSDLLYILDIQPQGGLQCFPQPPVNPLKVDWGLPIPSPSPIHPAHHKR
Sequence of GP IIb/IIIa (P08514 891-1039 partner limits assumed): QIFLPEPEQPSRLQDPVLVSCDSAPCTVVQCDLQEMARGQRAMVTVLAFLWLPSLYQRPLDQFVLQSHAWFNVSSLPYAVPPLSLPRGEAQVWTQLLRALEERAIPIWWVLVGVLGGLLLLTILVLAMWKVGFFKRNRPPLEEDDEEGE
Sequence of GP IIb/IIIa (P05106 27-788): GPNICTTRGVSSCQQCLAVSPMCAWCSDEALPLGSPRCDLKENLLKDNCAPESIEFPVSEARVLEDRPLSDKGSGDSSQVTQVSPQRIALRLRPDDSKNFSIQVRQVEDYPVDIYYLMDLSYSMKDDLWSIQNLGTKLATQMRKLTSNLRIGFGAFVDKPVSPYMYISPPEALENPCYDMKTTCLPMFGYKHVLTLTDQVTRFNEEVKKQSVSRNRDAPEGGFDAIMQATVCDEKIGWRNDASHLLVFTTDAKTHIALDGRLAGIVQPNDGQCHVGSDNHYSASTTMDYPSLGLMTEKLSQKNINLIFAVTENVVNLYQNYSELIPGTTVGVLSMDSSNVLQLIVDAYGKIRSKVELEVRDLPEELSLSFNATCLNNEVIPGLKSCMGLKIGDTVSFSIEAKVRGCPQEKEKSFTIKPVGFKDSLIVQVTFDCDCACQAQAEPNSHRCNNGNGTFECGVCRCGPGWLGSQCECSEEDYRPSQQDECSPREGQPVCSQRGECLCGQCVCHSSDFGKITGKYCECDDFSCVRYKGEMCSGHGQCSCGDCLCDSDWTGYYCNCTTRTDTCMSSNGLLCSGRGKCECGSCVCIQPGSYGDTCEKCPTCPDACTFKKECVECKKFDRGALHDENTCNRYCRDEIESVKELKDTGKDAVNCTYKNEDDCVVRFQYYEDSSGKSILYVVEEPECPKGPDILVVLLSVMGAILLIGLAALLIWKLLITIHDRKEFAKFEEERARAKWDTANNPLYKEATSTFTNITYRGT

platelets [5] = test: Ex vivo platelet aggregation in dogs (Example XII H); conditions: dog, 10 μg/mL collagen as agonist
Method: More importantly, several peptides in FIG. 23 were administered to dogs (according to the method of Example VII) at doses capable of inhibiting ex vivo platelet aggregation by >95%.
The bleeding time indicated in the parentheses was measured at a five-fold higher concentration of peptide. […]

[6] = test system: Gore-tex vascular graft thrombosis; test: Platelet and fibrinogen uptake by Gore-Tex grafts, baboon ex vivo shunt; assay type: in vivo
Method: Adult male baboons (weighing 16 to 25 kg) were used in these studies. These were sedated with ketamine hydrochloride (200 to 250 mg intramuscular injection) and maintained under anesthesia with sodium pentobarbital (50 to 75 mg administered intravenously as necessary).
Twenty-four hours before the ex vivo shunt was established, platelets were isolated from 500 ml of blood from the test animal and labelled with ca. 500 microcuries of indium-111 oxine (Medi+Physics, Emeryville, Calif.), which irreversibly and specifically binds to platelets with an efficiency of 50%. Immediately after labelling, these platelets were then injected back into the animal and allowed to circulate for 24 hours. Immediately before the start of the study, fibrinogen that had been isolated from the animal and labelled with iodine-131 (DuPont Nuclear, Boston, Mass.) was also injected back into the animal. Also at this time, baseline determinations of the clotting and template bleeding times were made, and blood samples were drawn for hematology studies.
To establish the ex vivo shunt, the femoral artery and vein were percutaneously cannulated with introducer catheters (KMA Inc., Mansfield, Mass.). The catheters were then connected to medical-grade, heparin-coatedsilastic tubing (2.59 mm internal diameter, (Extracorporeal Medical Specialties, Inc., King of Prussia, Pa.). […] Finally, a 5 cm-long test segment of a 4 mm (internal diameter) vascular graft was inserted at the apex of the circuit. The graft used in these studies was Gore-tex (expanded polytetrafluoroethylene, (W. L. Gore and Associates, Inc., Flagstaff, Az). An electromagnetic flow probe was then inserted into the tubing circuit to measure blood flow, which was maintained at 100 ml/min. by varying the resistance imported by a partially occluding screw clamp that was distal to the probe. Finally, a 5 cm-long test segment of a 4 mm (internal diameter) vascular graft was inserted at the apex of the circuit. The graft used in these studies was Gore-tex (expanded polytetrafluoroethylene, W. L. Gore and Associates, Inc., Flagstaff, Ariz.).
Platelet deposition onto the grafts was monitored by dynamic scanning with a gamma camera (Sigma 400, Ohio Nuclear, Inc., Sohon, Ohio), which detects the gamma radiation emitted by the ^111 indium-labelled platelets. Once the circuit was in place, the animal was placed under this camera, and blood flow was initiated. Scans were then taken at the rate of one frame per two minutes for two hours. The data from these scans were collected on a dedicated Digital MDA computer (Maynard, Mass.). […]

platelets [7] = test: Platelet aggregation on PRP of the peptide-treated baboon; assay type: in vivo; conditions: baboon animal 2, ADP 10 μm, 0, 1 and 2 hours
Method: At one- and two-hour time points, template bleeding times were measured, and blood samples were drawn to assess the hematology aggregation studies. Platelet aggregation studies were performed as described in Example V using ADP as the stimulus.
In addition, platelet aggregation studies were conducted on PRP derived from the second animal. Whole blood was drawn at three time points (0, 1 and 2 hours) of both control and experimental shunts.

[8] = baboon animal 1, two bolus IV injections of 10 mg/kg
[9] = baboon animal 2, 10 mg/kg bolus IV then 10 mg/kg/hr infusion for two hours

R(Pen)GHRGDWRCR [Peptide 4Q]
ex vivo platelet activation by collagen (platelets [1]; 5 mg/kg injection): near-maximal inhibition | ex vivo platelet response to ADP and AA (platelets [1]; 5 mg/kg injection, all three time points): completely unresponsive | ex vivo platelet aggregation by ADP, AA and collagen (platelets [1]; 10 mg/kg injection): prevented platelet aggregation by all three stimuli at one- and three-hour time points | ex vivo platelet responsiveness (platelets [1]; 10 mg/kg, five-hour point): platelet responsiveness was slightly improved | PBF (units) [2]: 9 units | IC50 (platelets [3]): 1300 nM | IC50 (platelets [4]): 1200 nM | IC50 (canine platelets): 1500 to 5000 nM | coronary thrombosis, time to full occlusion (coronary thrombosis; 5 mg/kg): significantly prolonged the time to occlusion | thrombus formation (coronary thrombosis; 5 mg/kg, circulating platelet levels one-third of normal): able to prevent thrombus formation | coronary thrombosis, time to full occlusion (coronary thrombosis; 10 mg/kg): completely prevented occlusion for the full five-hour experimental period | IC50 (human platelets): 3.3 µM

Ac-CNPRGD(O-Me-Y)RCNH2 [Peptide 8X]
differential inhibition of ligand binding to GP IIb/IIIa (GP IIb/IIIa): inhibits the binding of fibrinogen to GP IIb/IIIa more than it inhibits the binding of fibronectin and vitronectin to the same integrin | ex vivo platelet aggregation inhibited (platelets [5]): > 95%

G(Pen)GHRGDLRCA [Peptide 2G]
reduction in 111In-platelet uptake by graft [6, 8]: 90% | reduction in 131I-fibrinogen uptake by graft [6, 8]: 79% | reduction in labelled fibrinogen uptake by graft [6, 9]: 78% | reduction in labelled platelet uptake by graft [6, 9]: 84% | ex vivo ADP-stimulated aggregation (platelets [1]; 10 mg/kg injected, 1, 3 and 5 h): substantially inhibited | platelet aggregation in PRP (platelets [7]): completely unresponsive | IC50 (canine platelets): 15000 to 30000 nM | coronary thrombosis, time to full occlusion (coronary thrombosis; 10 mg/kg): did not significantly influence this frequency
